Results on one compound are retold here after patent US10537534B1, “Compositions and methods for treating skin conditions using visible light and resorcinols” (Johnson & Johnson Consumer Inc., priority 2019, dated 2020).

For assay [1], the system named is C. acnes ATCC 6919. Put plainly: Minimum inhibitory concentration (MIC) of 4-hexyl resorcinol against C. acnes growth, serial dilution in 96-well plate, visible turbidity. It counts as cell-based, Cutibacterium acnes. Also on record: key: A “+” indicates growth; a “−” indicates no growth. To be noted: anaerobic, 3 days, 35° C. How it is done:
(§1) A standard C. acnes ATCC 6919 culture is grown in Reinforced Clostridial Media (RCM) (Remel, Lenexa, Kans.). A suspension of C. acnes is adjusted to OD600=1.0 using a Spectromax M5 spectrophotometer (Molecular Devices, San Jose, Calif.) to yield a concentration of 10^8 cfu/ml. A 1:100 dilution of the standardized suspension is created to yield an inoculum concentration of 10^6 cfu/ml. Therefore, 100μl of inoculum into 100 μl of test sample yields 5×10^5 cfu/ml C. acnes within a 96-well experiment plate.
The minimum inhibitory concentration (MIC) of 4-hexyl resorcinol was determined to investigate its ability to inhibit the growth of C. acnes. All media and diluents were sterile. Aseptic techniques were used during study execution.
A C. acnes inoculum was prepared as set forth above.
A 0.1% (w/w) stock of 4-hexylresorcinol (Alfa Aesar, Tewksbury, Mass.) was made in RCM. Serial 1:2 dilutions were made in RCM across successive wells of a 96-well plate (sterile, u-bottom, untreated culture plate from Greiner Bio-one, Monroe, N.C.) to yield 10 test concentrations. After inoculation with equal volumes of C. acnes suspension, the test concentrations ranged from 0.05% through […] (v/v). Sterile RCM and 5×10^5 cfu/ml C. acnes in RCM were set up as a negative growth control and a positive growth control, respectively. Sterile 0.1% (w/w) 4-hexylresorcinol in RCM was set up as a turbidity control.
The 96-well plate was incubated anaerobically for 3 days at 35° C. The presence of visible turbidity within a challenged well was indicative of growth, while a clear well indicated no growth. The lowest concentration that inhibited C. acnes growth was determined to be the MIC. Negative growth control (not turbid) and positive growth control (turbid) results were as expected.

Assay [2] deals with C. acnes ATCC 6919. Put plainly: In vitro reduction of C. acnes by 4-hexylresorcinol with or without 440 nm blue light, colony count. It counts as cell-based, Cutibacterium acnes. The conditions noted are these: for Ave. Log Reduction ± S.D., arithmetic sum (expected additive): sum of light only and 0.002% 4-hexylresorcinol only. How it is done:
as §1
The culture is incubated in anaerobic chamber (<10 ppm O^2, 2.5-5% H^2, balance N^2 at 35±2° C.), in the dark, on an orbital shaker at 80 RPM. For test treatments including light, the prepared C. acnes culture is exposed for two, 60-minute light cycles with a 60-minute hold time between. Each light cycle is with blue light at wavelength 440 nm and 22±2 mW/cm^2 intensity. After treatments, the sample is incubated overnight (16±2 hours) in an anaerobic chamber. The sample is then recovered onto agar and incubated 5-7 days until clear colonies are visible. After growth, the remaining viable C. acnes colonies are counted; converted to cfu/ml and the log 10 reduction in number of cells is calculated (log 10 reduction=no light control sample−test sample).
A C. acnes inoculum was prepared as set forth above and in the same manner as Example 1. The solution was stored at 4° C. until time of use. The stock solution was added to RCM to produce a final concentration of 0.01% (v/v) and inoculated with 0.1 mL of the C. acnes suspension to yield 10^6 cfu/ml. The prepared culture in RCM+ALA was incubated by shaking at 80 rpm, in the dark (foil covered), and in an anaerobic chamber at 35±2° C. for 24 hours.
A 0.02% (w/v) of n-4-hexylresorcinol (Alfa Aesar, Tewksbury, Mass.) was prepared in RCM. The sample stock solution was mixed as 1:10 (v/v) with 24-hour C. acnes culture in RCM+ALA. Organism control culture was diluted 1:10 (v/v) with RCM for equivalent organism concentration.
The in vitro evaluation was conducted as follows. The prepared C. acnes culture (grown with ALA) was mixed with the test sample as described above, added to 6-well plates and then exposed to two 60-minute, 440 nm blue light (22 mW) exposures, separated by one 60-minute rest period in the dark. Two samples were tested: 4-hexylresorcinol at 0.002% (v/v) and 24-hour C. acnes culture in RCM+ALA alone. A duplicate, 6-well plate was kept un-exposed to light as a control. All plates were incubated anaerobically, overnight, in the dark (foil covered), and in an anaerobic chamber at 35±2° C.
After 24-hour incubation, samples were serial diluted and plated onto Reinforced Clostridial Agar (Remel, Lenexa, Kans.). Agar plates were incubated anaerobically at 35±2° C. for 5-7 days until bacterial colonies were well-established. Then, colonies were counted and colony forming units (CFU) per ml were calculated. Statistically significant differences are defined by unshared letter groupings.

As to `CCCCCCc1ccc(O)cc1O` [4-hexylresorcinol], the Growth result is “−” in assay [1] (concentration 1.25E^−2 % v/v); “−” in assay [1] (concentration 1.56E^−3 % v/v); “+” in assay [1] (concentration 1.95E^−4 % v/v); “−” in assay [1] (concentration 2.50E^−2 % v/v); “−” in assay [1] (concentration 3.13E^−3 % v/v); “+” in assay [1] (concentration 3.91E^−4 % v/v). Moreover, the Growth result in assay [1] (concentration 5.0E^−2 % v/v) was “−”; in assay [1] (concentration 6.25E^−3 % v/v) it was “−”; in assay [1] (concentration 7.81E^−4 % v/v), “+”; in assay [1] (concentration 9.77E^−5 % v/v) it was “+”. The “Ave. Log Reduction ± S.D.” value stood at 4.84 log in assay [2] (0.002% (v/v) 4-hexylresorcinol plus 440 nm blue light (22 mW), two 60-minute exposures, simultaneous); 4.84 ± 0.40 log in assay [2] (0.002% (v/v) 4-hexylresorcinol plus 440 nm blue light (22 mW), two 60-minute exposures, simultaneous, listed as HR); 1.00 log in assay [2] (0.002% (v/v) 4-hexylresorcinol treatment only, no light); 1.00 ± 0.55 log in assay [2] (0.002% (v/v) 4-hexylresorcinol treatment only, no light, listed as HR). In addition, the “Benefit from the synergistic combination over expected additive reduction” value in assay [2] (light plus 0.002% 4-hexylresorcinol versus arithmetic sum) was 100 fold. For the same compound, the “Ave. Log Reduction ± S.D., arithmetic sum (expected additive)” value is reported as 2.83 log in assay [2] and 2.83 ± 1.08 log in assay [2] (listed as HR).
